Experiments:
MDA-MB-435 = test: Antiproliferative activity against human MDA-MB-435 cells after 72 hrs by MTS assay; format: functional, cell-based; settings: MDA-MB-435, 72 h
HT-29 = test: Antiproliferative activity against human HT-29 cells after 72 hrs by MTS assay; format: functional, cell-based; settings: HT-29, 72 h

IC50 (MDA-MB-435): 800 nM
IC50 (HT-29): 1500 nM
Structure (SMILES): CCCCCCC[C@@H]1CC(=O)N[C@@H]([C@@H](C)CC)C(=O)N[C@H]([C@@H](O)C(C)C)C(=O)N[C@@H](CCO)C(=O)N[C@H]([C@@H](O)C(C)C)C(=O)N[C@@H](CCC(N)=O)C(=O)N(C)[C@@H]([C@@H](C)CC)C(=O)N[C@H](CO)C(=O)N[C@@H]([C@@H](C)O)C(=O)N2CCC[C@H]2C(=O)N[C@H](Cc2ccc(O)cc2)C(=O)N[C@@H]([C@@H](C)O)C(=O)N1
